Our source for the IC50 values is US8569295B2, “Bicyclic urea compounds” (Merck Patent GmbH, priority 2009, dated 2013).

The target of this experiment is T1, RON kinase (Homo sapiens, UniProt Q04912).
T1 construct: purchased Caliper Life Sciences
Put plainly: RON kinase biochemical mobility shift assay (Caliper Desktop Profiler). To be noted: RON kinase inhibition. Here is the method:
The Aurora assays described here are performed on two Caliper Life Sciences systems: the LC3000 and the Desktop Profiler. The RON kinase assays are performed on the Desktop Profiler only. These provide data on enzyme activity via measurement of the relative amounts of phosphorylated or unphosphorylated fluorescently labelled substrate peptide at the end of an enzymatic reaction. These different states of peptide are resolved by applying a potential difference across the sample. The presence of the charged phosphate group on the product (as opposed to the substrate) causes a different peptide mobility between the two peptides. This is visualized by excitation of the fluorescent label on the substrate and product peptides and represented as peaks within the analysis software.
The Desktop Profiler utilizes the same priniciple as the LC3000 for calculating percentage conversion of a substrate to product. Caliper Life Sciences provides proprietary flash frozen pre-made 384 well plates containing selected kinases. Each column in the 384 well plate contains a particular selected kinase. A second plate, the ‘substrate plate’ contains a mix of fluorescently labeled peptide substrate and ATP. These are arranged in columns so that transfer for substrate plate to enzyme plate provides the correct enzyme with the correct substrate/ATP concentration. Compounds are added to a thawed enzyme plate in the desired format, in single concentrations. Reactions are initiated by transfer of the substrate/ATP mix from the substrate plate. The enzyme plate is incubated for 90 minutes at 25 C. The reaction is stopped by addition of 70 ul of Stop Buffer (100 mM HEPES pH 7.5, 0.015% Brij-35, 10 mM EDTA (Sigma, E7889)).
Reading of the plate in the Profiler is identical to the LC3000, and the ratio between substrate and product peaks provides the activity of the enzyme in that well. This is best represented by a plate heat map which colors each well by percent inhibition as compared to positive and negative controls (no inhibitors and no ATP respectively).

pIC50: −log10 of the molar value.

T1 sequence (Q04912 25-1400): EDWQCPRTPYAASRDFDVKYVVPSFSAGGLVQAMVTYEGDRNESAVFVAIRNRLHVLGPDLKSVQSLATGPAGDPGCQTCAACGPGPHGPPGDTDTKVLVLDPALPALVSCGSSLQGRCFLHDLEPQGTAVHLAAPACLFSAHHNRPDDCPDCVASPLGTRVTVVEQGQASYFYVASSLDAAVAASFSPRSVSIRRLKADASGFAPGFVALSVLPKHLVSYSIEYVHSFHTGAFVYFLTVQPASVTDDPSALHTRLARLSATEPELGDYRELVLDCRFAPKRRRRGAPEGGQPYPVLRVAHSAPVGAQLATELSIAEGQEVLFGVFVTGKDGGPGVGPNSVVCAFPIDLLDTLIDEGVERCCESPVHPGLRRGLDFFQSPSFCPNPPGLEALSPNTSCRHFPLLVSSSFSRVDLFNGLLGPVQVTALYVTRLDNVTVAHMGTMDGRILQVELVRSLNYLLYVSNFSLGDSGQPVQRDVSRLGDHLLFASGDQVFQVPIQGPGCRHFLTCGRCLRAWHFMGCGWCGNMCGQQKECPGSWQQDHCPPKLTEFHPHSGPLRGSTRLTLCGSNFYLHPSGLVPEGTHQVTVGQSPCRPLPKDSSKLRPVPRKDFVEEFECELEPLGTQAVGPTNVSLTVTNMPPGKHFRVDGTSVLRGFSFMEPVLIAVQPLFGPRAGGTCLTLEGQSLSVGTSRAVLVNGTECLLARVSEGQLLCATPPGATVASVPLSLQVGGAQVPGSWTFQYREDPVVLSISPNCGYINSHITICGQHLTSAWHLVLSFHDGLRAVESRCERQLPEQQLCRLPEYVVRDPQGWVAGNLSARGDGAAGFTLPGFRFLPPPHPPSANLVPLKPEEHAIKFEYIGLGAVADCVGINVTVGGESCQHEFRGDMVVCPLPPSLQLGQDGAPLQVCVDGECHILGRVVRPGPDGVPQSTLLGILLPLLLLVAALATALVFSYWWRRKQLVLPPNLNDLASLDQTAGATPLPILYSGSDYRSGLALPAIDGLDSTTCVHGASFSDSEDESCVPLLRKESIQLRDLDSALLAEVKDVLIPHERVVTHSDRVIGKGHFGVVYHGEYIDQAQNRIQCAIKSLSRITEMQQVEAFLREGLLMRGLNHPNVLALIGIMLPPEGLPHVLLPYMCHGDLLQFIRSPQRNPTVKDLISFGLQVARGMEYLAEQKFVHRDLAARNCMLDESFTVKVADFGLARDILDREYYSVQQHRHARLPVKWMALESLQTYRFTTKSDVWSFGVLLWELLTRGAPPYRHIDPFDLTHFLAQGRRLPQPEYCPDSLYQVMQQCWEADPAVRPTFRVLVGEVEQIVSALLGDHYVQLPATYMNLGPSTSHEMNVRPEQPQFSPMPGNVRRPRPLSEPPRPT

The term pIC50 denotes −log10 of the IC50, conventionally taken in molar units. Take `O=C1NCc2c(Nc3ccc(OC(F)(F)F)c(Br)c3)ccnc2N1` [Example 195, 5-(3-Bromo-4-trifluoromethoxy-phenylamino)-3,4-dihydro-1H-pyrido[2,3-d]pyrimidin-2-one]: the pIC50 is 6.00 to 7.00.

Regarding `CCN1Cc2c(Oc3ccc(NC(=O)Nc4cc([N+](=O)[O-])ccc4F)cc3F)ccnc2NC1=O` [Example 258, 1-[4-(3-Ethyl-2-oxo-1,2,3,4-tetrahydro-pyrido[2,3-d]pyrimidin-5-yloxy)-3-fluoro-phenyl]-3-(2-fluoro-5-nitro-phenyl)-urea], the pIC50 was 6.00 to 7.00. With `CCN1Cc2c(Oc3ccc(NC(=O)Nc4ccc5c(c4)OCO5)cc3F)ccnc2NC1=O` [Example 263, 1-Benzo[1,3]dioxol-5-yl-3-[4-(3-ethyl-2-oxo-1,2,3,4-tetrahydro-pyrido[2,3-d]pyrimidin-5-yloxy)-3-fluoro-phenyl]-urea], the pIC50 was 7.00 to 8.00. In the case of `CCN1Cc2c(Oc3ccc(NC(=O)Nc4ccc(Cl)nc4)cc3F)ccnc2NC1=O` [Example 264, 1-(6-Chloro-pyridin-3-yl)-3-[4-(3-ethyl-2-oxo-1,2,3,4-tetrahydro-pyrido[2,3-d]pyrimidin-5-yloxy)-3-fluoro-phenyl]-urea] it was 6.00 to 7.00; in that of `CCN1Cc2c(Oc3ccc(NC(=O)Nc4c(-c5ccccc5)noc4C)cc3F)ccnc2NC1=O` [Example 266, 1-[4-(3-Ethyl-2-oxo-1,2,3,4-tetrahydro-pyrido[2,3-d]pyrimidin-5-yloxy)-3-fluoro-phenyl]-3-(5-methyl-3-phenyl-isoxazol-4-yl)-urea], 6.00 to 7.00.

Regarding `CCN1Cc2c(Oc3ccc(NC(=O)Nc4cc(C)cs4)cc3F)ccnc2NC1=O` [Example 267, 1-[4-(3-Ethyl-2-oxo-1,2,3,4-tetrahydro-pyrido[2,3-d]pyrimidin-5-yloxy)-3-fluoro-phenyl]-3-(4-methyl-thiophen-2-yl)-urea], the pIC50 is 7.00 to 8.00. As to `CCN1Cc2c(Oc3ccc(NC(=O)Nc4cc(C)oc4C(F)(F)F)cc3F)ccnc2NC1=O` [Example 268, 1-[4-(3-Ethyl-2-oxo-1,2,3,4-tetrahydro-pyrido[2,3-d]pyrimidin-5-yloxy)-3-fluoro-phenyl]-3-(5-methyl-2-trifluoromethyl-furan-3-yl)-urea], the pIC50 was 7.00 to 8.00. With `O=C(Nc1cccc(F)c1)Nc1ccc(Oc2ccnc3c2CNC(=O)N3)c(F)c1` [Example 269, 1-[3-Fluoro-4-(2-oxo-1,2,3,4-tetrahydro-pyrido[2,3-d]pyrimidin-5-yloxy)-phenyl]-3-(3-fluoro-phenyl)-urea], the pIC50 is 7.00 to 8.00. In the case of `O=C(Nc1cccc(C(F)(F)F)c1)Nc1ccc(Oc2ccnc3c2CNC(=O)N3)c(F)c1` [Example 270, 1-[3-Fluoro-4-(2-oxo-1,2,3,4-tetrahydro-pyrido[2,3-d]pyrimidin-5-yloxy)-phenyl]-3-(3-trifluoromethyl-phenyl)-urea] it was 7.00 to 8.00. In the case of `O=C(Nc1ccc([N+](=O)[O-])cc1)Nc1ccc(Oc2ccnc3c2CNC(=O)N3)c(F)c1` [Example 272, 1-[3-Fluoro-4-(2-oxo-1,2,3,4-tetrahydro-pyrido[2,3-d]pyrimidin-5-yloxy)-phenyl]-3-(4-nitro-phenyl)-urea] it was 7.00 to 8.00; in that of `CC(C)c1ccc(NC(=O)Nc2ccc(Oc3ccnc4c3CNC(=O)N4)c(F)c2)cc1` [Example 273, 1-[3-Fluoro-4-(2-oxo-1,2,3,4-tetrahydro-pyrido[2,3-d]pyrimidin-5-yloxy)-phenyl]-3-(4-isopropyl-phenyl)-urea], over 8.00; in that of `O=C(Nc1ccc(Oc2ccnc3c2CNC(=O)N3)c(F)c1)Nc1ccc(C(F)(F)F)cc1Cl` [Example 274, 1-(2-Chloro-4-trifluoromethyl-phenyl)-3-[3-fluoro-4-(2-oxo-1,2,3,4-tetrahydro-pyrido[2,3-d]pyrimidin-5-yloxy)-phenyl]-urea], 6.00 to 7.00.
